Each structure is given as a SMILES string. Where two headings read alike, the source gives them in different places.

The test system of one data set is mouse spleen cells. Description: Proliferation inhibition assay for mouse spleen cells. The data set is classed as cell-based. Particulars: 72 h, 3 days, Alamar Blue. An outline of the steps: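 C57BL/6N female mouse spleen cells (2×10^6 cells/mL) stimulated with Con A (3 μg/mL), LPS (100 μg/mL) or anti-mouse IgM (100 μg/mL) alongside serially diluted compounds, 3 days at 37° C, 5% CO2. Alamar Blue added for a further day; fluorescence read at ex 530/em 590 nm.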
On the technique in general: The colour change of resazurin is a common sign of viable cells or microbes.

Data set [1] deals with human peripheral blood mononuclear cells. The data set can be described thus: Proliferation inhibition assay for human peripheral blood mononuclear cells. The data set is classed as cell-based. As to conditions: Homo sapiens, 72 h; PBMC, anti-CD3 and anti-CD28 antibody, 3 days, Alamar Blue. The protocol:
4 mL of blood collected from healthy subjects was placed on 3 mL of MonoPoly Resolving Medium, and after centrifugation, the mononuclear cell (PBMC) fraction was collected. After washing with saline, PBMC (1×10^5 cells/mL) was suspended in RPMI 1640 medium (containing 10% fetal bovine serum, 10 mM HEPES, 1 mM pyruvic acid, and 4.5 g/L glucose). Next, after having added an anti-CD28 antibody (1 μg/mL) to the suspension, they were seeded on an anti-human CD3 T cell activation plate (BD Bioscience) at a capacity of 0.135 mL per well. Then, serial dilutions of test substances were added to respective wells, and incubated under conditions of carbon dioxide 5% at a temperature 37° C. After 3 days, Alamar Blue solution was added at 50 μL per well, and after incubation for one day, a fluorescence intensity at 590 nm using an excitation wavelength of 530 nm was determined by Cytoflour 4000 (Applied Biosystems).

Data set [2] has the same test system. Description: Activation inhibition assay for human peripheral blood mononuclear cells (CD40L, CD69 expression). The data set is classed as cell-based. Particulars: PBMC, anti-CD3 + anti-CD28, 6 hours, flow cytometry. The protocol: In accordance with the method of Assay Example 2, PBMC (2×10^6 cells/mL) was isolated from human peripheral blood, suspended in RPMI 1640 medium (containing 10% fetal bovine serum, 10 mM HEPES, 1 mM pyruvic acid, and 4.5 g/L glucose), and seeded in wells of a 96 well plate at 0.225 mL per well. The test substances were added to respective wells, and then an anti-CD3 antibody (2 μg/mL) and an anti-CD28 antibody (1 μg/mL) were added. Then, after incubation under conditions of carbon dioxide 5% at a temperature 37° C. for 6 hours, the expressions of CD40L and CD69, activation markers, were analysed by flow cytometry. As a result, when the cells were stimulated by both an anti-CD3 antibody and an anti-CD28 antibody, CD40L was expressed on 14.4% of PBMC, which was also CD4 positive. However, the proportion of the cells which expressed CD40L decreased when the cells had been treated with test substances (Compound 4: 4.9%; Compound 20: 3.7%, Compound 24: 3.6%).
A general note: A flow cytometer gives signals particle by particle.

The subject of data set [3] is Rabbit synoviocytes HIG-82. Description: Inhibition assay for proliferation of rabbit synoviocyte. The data set is classed as cell-based. Particulars: Oryctolagus cuniculus, 72 h; HIG-82, 3 days, Alamar Blue.
Data set [4] relates to allogeneic mixed lymphocyte reaction. The data set can be described thus: Allogeneic mixed lymphocyte reaction. The data set is classed as cell-based, mouse. Particulars: Mus musculus, Lymphocyte; C57BL/6N spleen stimulator cells, BALB/c lymph node responder cells, 86 hours, BrdU. The protocol:
Spleen cells prepared from C57BL/6N female mice (8-10 weeks old, purchased from Charles River Laboratories Japan Inc.) and peripheral lymph node mononuclear cells prepared from BALB/c female mice (8-10 weeks old, purchased from Charles River Laboratories Japan Inc.) were used as stimulator cells and responder cells, respectively. The respective cells were suspended in RPMI 1640 medium (containing 10% fetal bovine serum, 100 units/mL penicillin, and 0.1 mg/mL streptomycin) (with 2×10^6 cells/mL).

The next data set concerns Daudi cells. The data set can be described thus: Proliferation inhibitory activity on hematologic neoplasm cells, Daudi. The data set is classed as cell-based. As to conditions: Homo sapiens, Daudi, 72 h; 3 days, Alamar Blue.
In the next data set the test system is Jurkat cells. The data set can be described thus: Proliferation inhibitory activity on hematologic neoplasm cells, Jurkat. Format: cell-based. As to conditions: Homo sapiens, Jurkat, 72 h; 3 days, Alamar Blue.
Another data set deals with HL 60 cells. The data set can be described thus: Proliferation inhibitory activity on hematologic neoplasm cells, HL60. The data set is classed as cell-based. Particulars: Homo sapiens, HL-60, 72 h; 3 days, Alamar Blue. The protocol: (§1) Daudi cells (5×10^5 cells/mL), Jurkat cells (5×10^5 cells/mL), THP-1 cells (5×10^5 cells/mL), U 937 cells (5×10^5 cells/mL), and HL 60 cells (5×10^5 cells/mL) suspended in RPMI 1640 medium (containing 10% fetal bovine serum, 10 mM HEPES, 1 mM pyruvic acid, 4.5 g/L glucose, 100 units/mL penicillin, and 0.1 mg/mL streptomycin) were seeded in 96 well plates at a capacity of 0.135 mL per well. Serial dilutions of test substances were added to respective wells at 15 μL/well, and incubated under conditions of carbon dioxide 5% at 37° C. for 3 days. Thereafter, Alamar Blue solution was added at 50 μL, and after incubation for one day, the fluorescence intensity at 590 nm using an excitation wavelength of 530 nm was determined by Cytoflour 4000 (Applied Biosystems).

The test system of the next data set is THP-1 cells. Description: Proliferation inhibitory activity on hematologic neoplasm cells, THP-1. The data set is classed as cell-based. Particulars: Homo sapiens, THP-1, 72 h; 3 days, Alamar Blue.
A further data set concerns U 937 cells. The data set can be described thus: Proliferation inhibitory activity on hematologic neoplasm cells, U937. The data set is classed as cell-based. As to conditions: Homo sapiens, U-937, 72 h; 3 days, Alamar Blue. The protocol:
as §1

The next data set concerns fulminant hepatitis. The data set can be described thus: Fulminant hepatitis model (galactosamine and LPS). The data set is classed as in vivo, mouse. As to conditions: BALB/c mice, galactosamine 800 mg/kg and LPS 110 μg/kg i.p. The protocol: BALB/c male mice (7 weeks old, purchased from Charles River Laboratories Japan Inc.) were used in the experiment. After having orally administered the test substances suspended in 5% HPC, galactosamine (800 mg/kg) and LPS (110 μg/kg) were intraperitoneally administered. Then, survival rates at 72 hours after administration were obtained.

Data set [5] can be described thus: Toxicologic test for single oral administration. Particulars: Sprague-Dawley (SD), rat, in vivo; SD male rats, single oral dose.
The test system of data set [6] is Salmonella typhimurium TA98, TA100, TA1535, TA1537 and Escherichia coli WP2uvrA. The data set can be described thus: Ames test. Format: cell-based. As to conditions: preincubation method, with or without S-9, up to 5000 μg/flat plate. The protocol:
Using 5 strains of Salmonella typhimurium TA98, TA100, TA1535, TA1537 and Escherichia coli WP2uvrA, the test substances (Compound 4, Compound 19, Compound 22 and Compound 24) were tested for their mutagenesis according to a preincubation method.

Data set [7] in a line: Test for measuring blood level. Format: in vivo. Particulars: mouse, serum; BDF1 male mice, 200 mg/kg oral, one hour after the administration. The protocol:
A pharmacokinetic study was performed using 6 week-old BDF1 male mice. The test substances were mixed with hydroxylpropylcellulose (low-molecular weight form) [HPC(L)] in 2.5-fold of the drug weight, and dissolved in dichloromethane. The solvent was evaporated to dryness. To make the dosing formation, the residue was suspended in distilled water to prepare the drug level of 20 mg/mL. The test compounds were administered compulsorily and orally at a dose of 200 mg/kg to the mice that had been starved for 16 hours. One hour after the administration, blood was collected from the orbits of two mice to obtain serum. Internal standards solution and 1 ml of distilled water were added to 100 μL, of serum thus obtained, and then extracted with diethylether. The solvent was evaporated under vacuum, and the residue was resolved with eluent to provide samples for the HPLC measurement. HPLC was performed by using reversed-phase type column, and acetonitrile-phosphate buffer (pH 2.5) was used as the eluent. Using regression curves (Y=aX+b) obtained from the standards, the drug levels in the sample serum were calculated.

Data set [8] has as its system PC-3 prostate cancer cells. Description: Proliferation inhibitory activity on solid tumor cells, PC-3. Format: cell-based. As to conditions: 72 hours. The protocol:
(§2) Used in the test were MCF-7 cells which were established from human breast cancer and were cultured routinely under the conditions of 37° C. and 5% CO2, in MEM medium supplemented with 10% fetal calf serum, 25 mM of HEPES and 0.1 mg/ml kanamycin. The MCF-7 cells in a logarithmic growth phase were treated with trypsin/EDTA to prepare single cell suspension adjusted to 4.0×10^4 cells/ml in MEM medium (supplemented with 10% fetal calf serum, 25 mM of HEPES and 0.1 mg/ml kanamycin). Test compounds were dissolved in DMSO and diluted with RPMI 1640 medium (supplemented with 10% fetal calf serum, 25 mM of HEPES and 0.1 mg/ml kanamycin) to a concentration of […] to 2.0×10^−9M.
(§3) The cell suspension was filled in a 96-wells microplate at a rate of 0.1 ml per well and was cultured for 24 hours so as to make the cells to adhere to the microplate. Then, it was added with 0.1 ml of the sample solution and cultured at 37° C. for 72 hours in 5% CO2.
(§4) 50% Growth inhibition concentrations (GI50 μM) were calculated from growth inhibitions at various sample concentrations.
(§5) In the foregoing, when the cells other than MCF-7 are used, instead of adding 10% fetal bovine serum, the following media were used, and the following single cell suspensions were prepared. • PC-3 prostate cancer cells: 10% fetal bovine serum in F12K medium, single cell suspension of 2×10^4 cells; • A549 lung cancer cells: 10% fetal bovine serum in DMEM medium, single cell suspension of 1.5×10^4 cells; • WiDr colon cancer cells: 10% fetal bovine serum in MEM medium, single cell suspension of 3×10^4 cells; • B16F10 melanoma cells: 10% fetal bovine serum in RPMI 1640 medium, single cell suspension of 1×10^4 cells;

A further data set concerns B16F10 melanoma cells. The data set can be described thus: Proliferation inhibitory activity on solid tumor cells, B16F10. Format: cell-based. Particulars: Mus musculus, B16-F10; 72 hours. The protocol:
as §2, §3, §4, §5

For a further data set, the system named is WiDr colon cancer cells. Description: Proliferation inhibitory activity on solid tumor cells, WiDr. The data set is classed as cell-based. As to conditions: Homo sapiens, 72 hours. The protocol: as §2, §3, §4, §5
In another data set the test system is A549 lung cancer cells. Description: Proliferation inhibitory activity on solid tumor cells, A549. The data set is classed as cell-based. As to conditions: Homo sapiens, 72 hours. The protocol: as §2, §3, §4, §5
For another data set, the system named is MCF-7 cells. Description: Proliferation inhibitory activity on solid tumor cells, MCF-7. The data set is classed as cell-based. As to conditions: Homo sapiens, MCF7; 72 hours. The protocol: as §2, §3, §4
The mark [9] stands for this setting: LPS 100 μg/mL, read-out: Inhibition of LPS response.
Setting [10] is: concanavalin A 3 μg/mL, read-out: Inhibition of Con A response.

For the compound `COc1cccc2c1nc(C(F)F)n2-c1nc(N2CCOCC2)cc(N2C[C@@H](C)O[C@@H](C)C2)n1` [Compound 24, 2-(2-Difluoromethyl-4-methoxybenzimidazol-1-yl)-4-(cis-2,6-dimethylmorpholino)-6-morpholinopyrimidine], the IC50 is 100 to 10000 nM in the data set on mouse spleen cells (setting [9]); 100 to 10000 nM in the data set on mouse spleen cells (anti-mouse IgM antibody 100 μg/mL, read-out: Inhibition of Anti-IgM antibody response); 100 to 10000 nM with mouse spleen cells (setting [10]); 471 nM in [1]; 441 nM in data set [3]; 286 nM in [4]. Besides, the IC50 with Daudi cells is 397 nM; with Jurkat cells, 1450 nM; with HL 60 cells, 823 nM; in the data set with THP-1 cells, 859 nM; with U 937 cells, 2790 nM. Moreover, in data set [2] (CD4 positive, 14.4% without test substance), the “proportion of the cells which expressed CD40L” value worked out at 3.6%. In addition, in [2] (28.8% without test substance), the “proportion of CD4-positive cells which expressed CD69” value was 17.7%. For the same compound, the “proportion of CD4-negative cells which expressed CD69” value in [2] (50.9% without test substance) was 22.4%. Also, the figures for the “Survival Rate after 72 Hours” value in the data set on fulminant hepatitis (50 mg/kg oral) and in the data set on fulminant hepatitis (100 mg/kg oral) were 33% and 67%, respectively. The compound further showed a 50% lethal dose (LD50) in data set [5] of 600 to 900 mg/kg. Moreover, the “mutagenesis (colony number of reverse mutation)” value in [6] is reported as “negative”.
The compound `CC(=O)N1CCN(c2nc(N3CCOCC3)nc(-n3c(C(F)F)nc4ccccc43)n2)CC1` [Compound 28, 4-(4-acetylpiperazin-1-yl)-2-(2-difluoromethylbenzimidazol-1-yl)-6-morpholino-1,3,5-triazine] registered a melting point of 223 °C. Moreover, the IC50 in the data set with mouse spleen cells (setting [9]) lay within 1 to 100 nM. In addition, the IC50 in the data set with mouse spleen cells (setting [10]) is at most 1 nM. For the same compound, in [3], the IC50 worked out at 1110 nM. Also, the IC50 with Daudi cells worked out at 235 nM. In addition, the IC50 with Jurkat cells came out at 1800 nM. Further, the IC50 in the data set on THP-1 cells is 496 nM. The concentration at 1 h in [7] worked out at 16100 ng/mL. Also, in data set [8], halving of growth (GI50) required 270 nM. The compound also had a 50% growth inhibitory concentration (GI50) in the data set on B16F10 melanoma cells of 2660 nM. Also, growth in the data set on WiDr colon cancer cells was halved (GI50) at 1270 nM. For the same compound, in the data set with A549 lung cancer cells, the 50% growth inhibitory concentration (GI50) stood at 830 nM. In the data set with MCF-7 cells, this compound gave a concentration for 50% growth inhibition (GI50) of 1210 nM.

One may read the LD50 as the dose expected to kill half of the subjects tested. One may read the GI50 as the concentration at which growth is held to half of that of the control. Read a high GI50 as less potent growth inhibition. Broadly, the melting point is the temperature, or range, at which the solid turns liquid.

(Values after patent US8338414B2, “Immunosuppressive agent and anti-tumor agent comprising heterocyclic compound as active ingredient” (Zenyaku Kogyo KabushikiKaisha, priority 2005, dated 2012).)
